Experimental data as given in ChEMBL document CHEMBL1132343, “Carboxylic acid analogues of tamoxifen: (Z)-2-[p-(1, 2-diphenyl-1-butenyl)phenoxy]-N,N-dimethylethylamine. Estrogen receptor affinity and estrogen antagonist effects in MCF-7 cells” (J Med Chem, 1999).

Key:
MCF7 [1] = experiment: Inhibition of MCF-7 cell proliferation at 10000 nM; format: functional, Homo sapiens
Estrogen receptor = target: T1, Estrogen receptor (Homo sapiens, UniProt P03372)
T1 sequence (P03372 whole entry): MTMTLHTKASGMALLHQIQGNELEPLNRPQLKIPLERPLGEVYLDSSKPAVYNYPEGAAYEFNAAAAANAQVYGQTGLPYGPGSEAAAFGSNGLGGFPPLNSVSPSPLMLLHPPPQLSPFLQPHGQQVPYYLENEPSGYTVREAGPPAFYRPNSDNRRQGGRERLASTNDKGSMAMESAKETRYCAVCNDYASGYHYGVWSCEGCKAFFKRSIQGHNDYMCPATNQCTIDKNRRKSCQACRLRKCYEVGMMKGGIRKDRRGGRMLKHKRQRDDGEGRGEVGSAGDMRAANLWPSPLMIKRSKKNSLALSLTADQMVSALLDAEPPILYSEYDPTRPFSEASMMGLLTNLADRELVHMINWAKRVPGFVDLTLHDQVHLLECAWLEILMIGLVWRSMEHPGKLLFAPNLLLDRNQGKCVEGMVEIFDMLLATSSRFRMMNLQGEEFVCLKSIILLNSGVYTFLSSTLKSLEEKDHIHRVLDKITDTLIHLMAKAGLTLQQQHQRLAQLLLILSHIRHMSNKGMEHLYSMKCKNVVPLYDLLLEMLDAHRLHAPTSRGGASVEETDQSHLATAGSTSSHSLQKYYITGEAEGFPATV
Description: Displacement of [3H]17-beta-estradiol from human estrogen receptor alpha

MCF7 [2] = experiment: Inhibition of MCF-7 cell proliferation at 10 nM; format: functional, Homo sapiens
MCF7 [3] = experiment: Inhibition of MCF-7 cell proliferation at 100 nM; format: functional, Homo sapiens
MCF7 [4] = experiment: Inhibition of estrogen-induced MCF-7 cell proliferation at 10000 nM; format: functional, Homo sapiens
MCF7 [5] = experiment: Inhibition of MCF-7 cell proliferation at 1000 nM; format: functional, Homo sapiens

| SMILES | Cell number (MCF7 [1]) [%] | IC50 (Estrogen receptor) [nM] | Cell number (MCF7 [2]) [%] | Cell number (MCF7 [3]) [%] | Cell number (MCF7 [4]) [%] | Cell number (MCF7 [5]) [%] |
| --- | --- | --- | --- | --- | --- | --- |
| CC/C(=C(/c1ccc(O)cc1)c1cccc(OCC(=O)O)c1)c1ccccc1 | 100 | > 11 | – | – | – | – |
| CC/C(=C(/c1ccc(OCC(=O)O)cc1)c1cccc(O)c1)c1ccccc1 | 52 | 1440 | 99 | 82 | 78 | – |
| CC/C(=C(\c1ccc(O)cc1)c1ccc(OCC(=O)O)cc1)c1ccccc1 | 102 | 500 | – | – | – | 96 |
| O=C(O)CCCOc1ccc(/C(=C/CCc2ccccc2)c2ccc(O)cc2)cc1 | – | 235 | 74 | 25 | 18 | 20 |
| CC[C@](C)(c1ccccc1)[C@@H](c1ccc(O)cc1)c1ccc(OCCCC(=O)O)cc1 | 68 | 6000 | – | 99 | – | 102 |
| O=C(O)CCCOc1ccc(/C(=C/CCc2ccccc2)c2cccc(O)c2)cc1 | 19 | 1700 | 89 | 91 | 50 | – |
| CC/C(=C(\c1ccccc1)c1ccc(OCCN(C)C)cc1)c1ccccc1 [TAMOXIFEN] | 24 | – | 97 | 72 | 31 | – |
